# Values of other authors, collected in paper PMC5292677 (Leukemia, 2016).
# Where two headings read alike, the source gives them in different places.
# Tested on: patients with MF
# Conditions: cited from earlier work
compound,measurement,setting,value
Cc1cnc(Nc2ccc(OCCN3CCCC3)cc2)nc1Nc1cccc(S(=O)(=O)NC(C)(C)C)c1 [fedratinib],Change in allele burden,,no meaningful change in allele burden
same,CRP and IL-6 levels,"patients treated, no reference given",CRP downregulation was reported without significant IL-6 reduction
N#CCNC(=O)c1ccc(-c2ccnc(Nc3ccc(N4CCOCC4)cc3)n2)cc1 [momelotinib],Change in allele burden,,no meaningful change in allele burden
C1=C/COCc2cc(ccc2OCCN2CCCC2)Nc2nccc(n2)-c2cccc(c2)COC/1 [pacritinib],Myelosuppression,,lack of myelosuppression
N#CC[C@H](C1CCCC1)n1cc(-c2ncnc3[nH]ccc23)cn1 [ruxolitinib],TNFα level,following 4 weeks' treatment,downregulated
same,Change in allele burden,long-term treatment,only a modest reduction
